Test results from patent US20260365696A1, “INHIBITORS OF PTP1B / NCK1 INTERACTION AND METHODS OF MAKING AND USING SAME” (Radella Pharmaceuticals LLC, priority 2023, published 2026).
“Also recorded” adds a separate entry of the source.

What was measured:
[1] = In vivo biodistribution / pharmacokinetics in C57/BL6 mice; design: species or system mouse; details: 30 mg/kg IP
Procedure: FIG. 6 is a graph showing MD20 concentrations in the indicated tissues in a mouse following intraperitoneal (IP) administration of the peptide at a dose of 30 mg/kg. Tissue samples were collected at 0, 0.25, 0.5, 1, 2, 4, 8, and 24 hours post-injection.
Biodistribution: In vivo pharmacokinetic assessments of biodistribution of MD20 were performed in C57/BL6 male mice. All animals were maintained under a 12 h light/dark cycle with free access to food and water, where temperature and humidity was controlled according to UK Home Office regulations. MD20 compound was dissolved in PBS and administered to animals via intraperitoneal (IP) injection at a dose of 30 mg/kg. Mice were sacrificed at eight different time points (0.25, 0.5, 1, 3, 4, 6, 8 and 24 h house post-dosing; n=3 animals per time point, 24 animals in total). Terminal blood (in EDTA-containing tubes for plasma), perfused liver, muscle, adipose, kidney and brain samples were collected and kept on dry ice. Blood samples were centrifuged (4 °C, 21,100 g for 5 min) and the resulting plasma was transferred in to corresponding tubes. All samples were analyzed using LC-MS and appropriate methods.

[2] = test system: HFD-fed mice; experiment: High-fat diet-induced obesity and type 2 diabetes model; assay type: in vivo, mouse; details: 30 mg/kg IP daily, 7 weeks
Source text: Animals: All animals were housed and tested following European (Directive on the Protection of Animals used for Scientific Purposes, 2010/63/EU) and UK Home Office regulations. Experiments were approved by the University Ethics Board and carried out in accordance with the Animal (Scientific Procedures) Act 1986 and following ARRIVE guidelines. C57BL/6 male mice (~3-4 months) were purchased from Charles River, UK. All mice received high fat and cholesterol diet (42% fat plus 0.2% cholesterol, #TD.88137, Envigo, US) to induce experimental type 2 diabetes and obesity phenotype. All mice had ad libitum access to food and water and were kept in a 12 h light/dark cycle.
Briefly, after 8 weeks of high fat/high cholesterol diet feeding, mice were counterbalanced according to their body weight in to control (n=10) or MD20 30 mg/kg (n=10) groups. MD20 compound (30 mg/kg) was administered once daily via intraperitoneal (IP) injection for 7 weeks, whereas control mice received daily IP injection of vehicle (PBS). MD20 was kept at −20 °C and dissolved in sterile phosphate buffered saline (PBS) freshly every day before the injection. Three mice died during the study, and the final number of animals was: control (n=9) and MD20 30 mg/kg (n=8).
Bodyweights and body mass composition: Bodyweights were recorded during the study. Fat mass and lean mass composition were analysed using an EchoMRI scanner (EchoMedical Systems, Houston, TX, U.S.A.).
Metabolic measurements: All animals were 5 h-fasted before metabolic testing. Tail blood glucose was measured using AlphaTRAK 2 glucose strips and glucometer (Abbot, UK). Glucose tolerance tests (GTT) and insulin tolerance tests (ITT) were performed by IP injection of 2 mg/g of glucose (GTT) or 0.6 mU/g insulin (ITT), and glucose levels were measured at 15, 30, 60 and 90 min post-injection.
Serum and liver assays: Trunk-derived blood was collected from 5 h-fasted mice into serum separator microtubes and kept at −80 °C. Serum was used for insulin (#EZRMI-13K, Merck), leptin (#90030, Crystal Chem), free fatty acids (FFA; #mak044, Sigma-Aldrich), cholesterol (#MAK043, Sigma Aldrich), alanine, and aspartate aminotransferase (ALT and AST; ab105134 and ab105135, Abcam) analyses. Serum and liver triglycerides were determined using triglyceride reagents (#T2449, #F6428, #G7793, Sigma Aldrich).
(§1) Statistical analyses: Data were reported as means±SEM and analysed using one- or two-way ANOVA with Bonferroni post hoc tests, as appropriate. GraphPad Prism (V8, GraphPad Software, Inc., San Diego, California, USA) was used for statistical analyses. P-values <0.05 were considered significant.

[3] = test system: db/db mice; experiment: db/db genetic mouse model of diabetes and obesity; assay type: in vivo
Source text: Animals: All animals were housed and tested following European (Directive on the Protection of Animals used for Scientific Purposes, 2010/63/EU) and UK Home Office regulations. Experiments were approved by the University Ethics Board and carried out in accordance with the Animal (Scientific Procedures) Act 1986 and following ARRIVE guidelines. Db/db male mice (~4 weeks old) were purchased from Jackson, USA. All mice received standard mouse chow diet and had ad libitum access to food and water and were kept in a 12 h light/dark cycle.
Treatments: Mice were assigned and counterbalanced according to their body weights in to the following groups: control PBS (n=10); MD18 at 15 mg/kg (n=7), 30 mg/kg (n=8), or 45 mg/kg (n=7); or MD20 at 15 mg/kg (n=9), 30 mg/kg (n=10) or 45 mg/kg (n=7). MD18 and MD20 were administered once daily via subcutaneous (SC) injection for 41 days, whereas control mice received a daily SC injection of vehicle (PBS). MD18 and MD20 were kept in −20 °C and dissolved in sterile phosphate buffered saline (PBS).
Body weights and body mass composition: Body weights were recorded twice weekly during the study, and fat mass and lean mass composition was analysed using an EchoMRI scanner (EchoMedical Systems, Houston, TX, U.S.A.).
Metabolic measurements: All animals were five-hour fasted before obtaining basal glucose measurements and GTT, ITT, and corresponding treatments were administered 1 hour before glucose measurements. Tail blood glucose was measured using AlphaTRAK 2 glucose strips and glucometer (Abbot, UK), or blood was collected and glucose assay (AB65333, Abcam) was performed where readings were too high to be recorded via glucometer. Human Actrapid Insulin (NovaNordisk) at 1 IU/kg dose was administered during ITT.
Serum and liver assays: Trunk-derived blood was collected from 5 h-fasted mice into serum separator microtubes and kept at −80 °C. Serum was used for insulin (#EZRMI-13K, Merck) and leptin (#90030, Crystal Chem) analyses.
as §1

**Q.** What does the source list for Ac-PRPPKR-NH2 [MD20, Ac-PRPPKR-NH2]?
**A.** detection in most tissues and plasma, time post-administration [1]: up to 5 h; stability and bioavailability in vivo [1]: good stability and bioavailability in vivo; detection in liver ([1]; any time point): No MD20 was detected in the liver; also recorded: not detected in liver tissue at any time point; fasted basal glucose levels [2]: No significant differences; fasted serum cholesterol [2]: No significant differences; fasted serum free fatty acids [2]: No significant differences; fasted serum insulin [2]: No significant differences; fasted serum leptin [2]: No significant differences; hepatic toxicity [2]: most likely did not induce hepatic toxicity; liver triglycerides [2]: No significant differences; serum ALT [2]: No significant differences; serum AST [2]: No significant differences; serum triglycerides [2]: No significant differences; body weight gain ([2]; vs control): inhibited body weight gain; fat mass gain ([2]; vs control): inhibited fat mass gain; glucose tolerance test (GTT) ([2]; 2 mg/g glucose): No significant differences; insulin sensitivity during ITT ([2]; 0.6 mU/g insulin): improved insulin sensitivity during ITT; fasted insulin levels ([3]; 15 mg/kg SC daily, about 6 weeks, vs control): significant decrease in insulin levels; leptin levels ([3]; 30 mg/kg SC daily, about 6 weeks, vs control): significant decrease in leptin levels; basal glucose levels ([3]; 5-hour-fasted, SC daily, vs vehicle): No significant differences; body weight gain ([3]; 15, 30 or 45 mg/kg SC daily, significant overall interaction): inhibited body weight gain; glucose clearance during GTT ([3]; SC daily, week 4, vs control, all doses): No significant differences in glucose clearance; insulin tolerance test (ITT) ([3]; SC daily, week 6, 1 IU/kg insulin, vs control): did not detect any significant differences
